In patent US20080021026A1, “BENZOTHIOPHENE INHIBITORS OF RHO KINASE” (priority 2006, published 2008) one finds IC50 data, which are given here for 28 compounds.

Like-named read-outs stand apart in the source and are kept apart here.

Assay [1] has as its target T1, recombinant N-terminal GST-tagged human Rho kinase 1 (ROCK1, amino acids 1-535) (Homo sapiens, UniProt Q13464).
T1 construct: ROCK1, amino acids 1-535; purchased Invitrogen Inc. PV-3691
In words: In vitro Rho kinase assay (luciferase-based ATP consumption), ROCK1. It counts as biochemical. Here is the method:
In Vitro Rho Kinase Assay
Rho kinase biochemical assays described below depend on firefly luciferase-based, indirect measurement of total ATP consumption by the kinase following incubation with substrate and ATP. 25 μl of Rho kinase assay buffer (20 mM Tris-HCL [pH 7.5], 1 mM MgCl2, 0.4 mM CaCl2, 0.15 mM EGTA, 0.1 mg/ml bovine serum albumin) containing 0.82 μg/ml of recombinant N-terminal GST-tagged human Rho kinase 1 (ROCK1, amino acids 1-535, Invitrogen Inc., cat. #PV-3691) or recombinant N-terminal GST-tagged human Rho kinase 2 (ROCK2, amino acids 1-552, Invitrogen Inc., cat #PV3759), 100 μg/ml S6 peptide substrate (related to amino acids 218-249 of the human 40S ribosomal protein S6, and suitable for ROCK1 or ROCK2, e.g. Upstate/Millipore Inc., cat #12-420), and 3 µM ATP are dispensed to wells of a 384 multi-well opaque plate. The plate is centrifuged for 30 seconds at approximately 200×g. 240 nl of test compound in DMSO is dispensed to each well by passive pin transfer. The lag phase of this in vitro kinase reaction permits addition of compounds soon after the reaction initiates. The reaction is allowed to incubate at 30° C. for 2 hours. The assay plates are sealed and maintained in a humidified environment. After 2 hours, 25 μl of easylite protein kinase assay reagent (Perkin-Elmer, Inc.) is dispensed. After an additional 10 minute incubation at room temperature (about 22° C.), luminescence activity is measured on a Molecular Devices Analyst multi-mode plate reader or other suitable plate reader. Kinase inhibition results in less ATP consumption, and therefore increased luminescence signal. Negative control activity is measured with DMSO lacking any test compound. The positive control is 2-methyl-1-(4-methylisoquinolin-5-ylsulfonyl)perhydro-1,4-diazepine hydrochloride (aka H-1152P, HCl salt). Efficacy is measured as a percentage of positive control activity. […] The designation NT means the cited example was not tested.

The target of assay [2] is T2, recombinant N-terminal GST-tagged human Rho kinase 2 (ROCK2, amino acids 1-552) (Homo sapiens, UniProt O75116).
T2 construct: ROCK2, amino acids 1-552; purchased Invitrogen Inc. PV3759
In words: In vitro Rho kinase assay (luciferase-based ATP consumption), ROCK2. Format: biochemical. The method, boiled down:
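GST-ROCK2 (aa 1-552, 0.82 μg/ml) with 100 μg/ml S6 peptide and 3 µM ATP in Tris pH 7.5 buffer with MgCl2/CaCl2/EGTA/BSA, compound added just after reaction start, 2 h at 30 °C. Remaining ATP read by luciferase luminescence. Efficacy expressed as percentage of H-1152P positive control.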

[3] abbreviates: recombinant GST-tagged human ROCK1, luciferase-based ATP consumption, read-out: ROCK1 IC50.
The mark [4] stands for this setting: recombinant GST-tagged human ROCK2, luciferase-based ATP consumption, read-out: ROCK2 IC50.

T2 sequence (O75116 1-552): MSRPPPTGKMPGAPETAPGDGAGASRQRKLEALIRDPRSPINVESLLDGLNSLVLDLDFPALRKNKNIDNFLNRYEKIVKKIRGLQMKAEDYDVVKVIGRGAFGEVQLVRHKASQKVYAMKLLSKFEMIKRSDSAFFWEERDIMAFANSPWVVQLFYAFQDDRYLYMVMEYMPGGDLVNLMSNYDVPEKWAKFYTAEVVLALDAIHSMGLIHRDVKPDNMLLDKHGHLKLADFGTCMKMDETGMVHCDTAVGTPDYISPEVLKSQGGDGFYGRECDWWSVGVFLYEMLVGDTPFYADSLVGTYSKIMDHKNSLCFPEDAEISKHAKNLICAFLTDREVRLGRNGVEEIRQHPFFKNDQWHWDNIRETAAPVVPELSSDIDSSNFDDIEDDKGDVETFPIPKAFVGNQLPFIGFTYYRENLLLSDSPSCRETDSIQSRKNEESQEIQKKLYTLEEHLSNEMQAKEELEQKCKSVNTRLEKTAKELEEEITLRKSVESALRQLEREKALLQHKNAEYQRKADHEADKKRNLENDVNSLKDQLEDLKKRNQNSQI
T1 sequence (Q13464 1-535): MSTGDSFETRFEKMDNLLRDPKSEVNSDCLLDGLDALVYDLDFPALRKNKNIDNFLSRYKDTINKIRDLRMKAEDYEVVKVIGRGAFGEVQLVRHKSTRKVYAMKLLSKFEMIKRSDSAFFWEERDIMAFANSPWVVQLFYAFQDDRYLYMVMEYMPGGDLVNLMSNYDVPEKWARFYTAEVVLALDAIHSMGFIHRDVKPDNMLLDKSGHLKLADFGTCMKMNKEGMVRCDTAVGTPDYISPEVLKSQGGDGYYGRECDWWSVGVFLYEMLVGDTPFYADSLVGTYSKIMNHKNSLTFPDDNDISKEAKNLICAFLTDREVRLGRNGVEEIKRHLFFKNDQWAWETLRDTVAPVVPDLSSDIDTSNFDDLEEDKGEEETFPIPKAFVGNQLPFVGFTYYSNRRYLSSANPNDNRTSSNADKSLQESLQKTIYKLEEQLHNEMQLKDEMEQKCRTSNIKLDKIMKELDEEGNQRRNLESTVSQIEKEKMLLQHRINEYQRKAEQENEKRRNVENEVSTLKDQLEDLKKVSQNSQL

As for `Cc1c(-c2ccnc(N)n2)sc2ccc(CNC(=O)c3c(O)ccc4ccccc34)cc12` [Example 237, Cc1c(sc2ccc(CNC(═O)c3c(O)ccc4ccccc34)cc12)-c5ccnc(N)n5], the half-maximal inhibitory concentration (IC50) in assay [1] (setting [3]) and in assay [2] (setting [4]) was under 5 µM in each case.

As to `Cc1c(-c2ccnc(N)n2)sc2ccc(CNC(=O)C(F)(F)F)cc12` [Example 105, Cc1c(sc2ccc(CNC(═O)C(F)(F)F)cc12)-c3ccnc(N)n3], the values for the concentration for half-maximal inhibition (IC50) in assay [1] (setting [3]) and in assay [2] (setting [4]) were over 5 µM and under 5 µM, respectively.

Take `Cc1ccc(C(=O)NCc2ccc3sc(-c4ccnc(N)n4)c(C)c3c2)cc1C` [Example 136, Cc1ccc(cc1C)C(═O)NCc2ccc3sc(c(C)c3c2)-c4ccnc(N)n4]: the concentration for half-maximal inhibition (IC50) in assay [1] (setting [3]) and in assay [2] (setting [4]) was over 5 µM in each case.

On to `Cc1c(-c2ccnc(N)n2)sc2ccc(CNC(=O)c3c4ccccc4cc4ccccc34)cc12` [Example 297, Cc1c(sc2ccc(CNC(═O)c3c4ccccc4cc5ccccc35)cc12)-c6ccnc(N)n6], for which the half-maximal inhibitory concentration (IC50) in assay [1] (setting [3]) and in assay [2] (setting [4]) was under 5 µM throughout.

In the case of `Cc1c(-c2ccnc(N)n2)sc2ccccc12` [Example 14, 4-(3-Methylbenzo[b]thiophen-2-yl)pyrimidin-2-amine], the half-inhibitory concentration (IC50) in assay [1] (setting [3]) and in assay [2] (setting [4]) was under 5 µM in each case.

Regarding `Cc1c(-c2ccnc(N)n2)sc2ccc(CNC(=O)c3ccccc3C(F)(F)F)cc12` [Example 243, Cc1c(sc2ccc(CNC(═O)c3ccccc3C(F)(F)F)cc12)-c4ccnc(N)n4], the concentration for half-maximal inhibition (IC50) in assay [1] (setting [3]) and in assay [2] (setting [4]) was under 5 µM each time.

Consider `Cc1ccccc1CC(=O)NCc1ccc2sc(-c3ccnc(N)n3)c(C)c2c1` [Example 132, Cc1ccccc1CC(═O)NCc2ccc3sc(c(C)c3c2)-c4ccnc(N)n4], for which the half-maximal inhibitory concentration (IC50) in assay [1] (setting [3]) and in assay [2] (setting [4]) was under 5 µM in each case.

Take `Cc1c(-c2ccnc(N)n2)sc2ccc(Sc3cccc(O)c3)cc12` [Example 84, 3-(2-(2-Aminopyrimidin-4-yl)-3-methylbenzo[b]thiophen-5-ylthio)phenol]: the half-maximal inhibitory concentration (IC50) in assay [1] (setting [3]) and in assay [2] (setting [4]) was under 5 µM each time.

In the case of `Cc1c(-c2ccnc(N)n2)sc2ccc(CNC(=O)c3cccnc3)cc12` [Example 109, Cc1c(sc2ccc(CNC(═O)c3cccnc3)cc12)-c4ccnc(N)n4], the IC50 (commonly the midpoint of a concentration-inhibition curve) was over 5 µM in assay [1] (setting [3]) and under 5 µM in assay [2] (setting [4]).

In the case of `Cc1c(-c2ccnc(N)n2)sc2ccc(CNC(=O)c3cc(O)c(O)c(O)c3)cc12` [Example 185, Cc1c(sc2ccc(CNC(═O)c3cc(O)c(O)c(O)c3)cc12)-c4ccnc(N)n4], the IC50 in assay [1] (setting [3]) is over 5 µM; in assay [2] (setting [4]) it was under 5 µM.

In the case of `COc1cccc(C(=O)NCc2ccc3sc(-c4ccnc(N)n4)c(C)c3c2)c1OC` [Example 222, COc1cccc(C(═O)NCc2ccc3sc(c(C)c3c2)-c4ccnc(N)n4)c1OC], the half-inhibitory concentration (IC50) in assay [1] (setting [3]) is over 5 µM; in assay [2] (setting [4]) it was under 5 µM.

For `Cc1c(-c2ccnc(N)n2)sc2ccc(CNC(=O)c3ccc(Oc4ccccc4)cc3)cc12` [Example 284, Cc1c(sc2ccc(CNC(═O)c3ccc(Oc4ccccc4)cc3)cc12)-c5ccnc(N)n5], the figures for the 50% inhibitory concentration (IC50) in assay [1] (setting [3]) and in assay [2] (setting [4]) were over 5 µM and under 5 µM, respectively.

As to `Cc1c(-c2c[nH]c3ncccc23)sc2ccc(Cl)cc12` [Example 5, 3-(5-Chloro-3-methylbenzo[b]thiophen-2-yl)-1H-pyrrolo[2,3-b]pyridine], the IC50 in assay [1] (setting [3]) and in assay [2] (setting [4]) was over 5 µM each time.

As to `Cc1c(-c2ccnc(N)n2)sc2ccc(CNC(=O)C(C)c3cccc(C(=O)c4ccccc4)c3)cc12` (centres unmarked) [Example 324, CC(C(═O)NCc1ccc2sc(c(C)c2c1)-c3ccnc(N)n3)c4cccc(c4)C(═O)c5ccccc5], the IC50 in assay [1] (setting [3]) and in assay [2] (setting [4]) was over 5 µM in each case.

On to `COc1cccc(Oc2ccc3sc(-c4ccnc(N)n4)c(C)c3c2)c1` [Example 81, 4-(5-(3-Methoxyphenoxy)-3-methylbenzo[b]thiophen-2-yl)pyrimidin-2-amine], for which the 50% inhibitory concentration (IC50) in assay [1] (setting [3]) and in assay [2] (setting [4]) was under 5 µM each time.

In the case of `COc1cccc(C(N)c2ccc3sc(-c4ccnc(N)n4)c(C)c3c2)c1` (centres unmarked) [Example 32, 4-(5-(Amino(3-methoxyphenyl)methyl)-3-methylbenzo[b]thiophen-2-yl)pyrimidin-2-amine], the half-inhibitory concentration (IC50) in assay [1] (setting [3]) and in assay [2] (setting [4]) was under 5 µM in each case.

As for `Cc1c(-c2ccnc(N)n2)sc2ccc(CNC(=O)C=Cc3ccccc3O)cc12` [Example 161, Cc1c(sc2ccc(CNC(═O)C═Cc3ccccc3O)cc12)-c4ccnc(N)n4], the IC50 in assay [1] (setting [3]) and in assay [2] (setting [4]) was under 5 µM throughout.

Consider `Cc1ccccc1CCC(=O)NCc1ccc2sc(-c3ccnc(N)n3)c(C)c2c1` [Example 167, Cc1ccccc1CCC(═O)NCc2ccc3sc(c(C)c3c2)-c4ccnc(N)n4], for which the concentration for half-maximal inhibition (IC50) is over 5 µM in assay [1] (setting [3]) and under 5 µM in assay [2] (setting [4]).

On to `Cc1c(-c2ccnc(N)n2)sc2ccc(Nc3cccnc3)cc12` [Example 65, 4-(3-Methyl-5-(pyridin-3-ylamino)benzo[b]thiophen-2-yl)pyrimidin-2-amine], for which the half-inhibitory concentration (IC50) in assay [1] (setting [3]) and in assay [2] (setting [4]) was under 5 µM throughout.

On to `Cc1c(-c2ccnc(N)n2)sc2ccc(CNC(=O)C=Cc3ccccc3Cl)cc12` [Example 225, Cc1c(sc2ccc(CNC(═O)C═Cc3ccccc3Cl)cc12)-c4ccnc(N)n4], for which the IC50 in assay [1] (ROCK1 IC50, recombinant GST-tagged human ROCK1, luciferase-based ATP consumption) is over 5 µM; in assay [2] (ROCK2 IC50, recombinant GST-tagged human ROCK2, luciferase-based ATP consumption) it was under 5 µM.

On to `Cc1c(-c2ccnc(N)n2)sc2ccc(CNC(=O)c3cccc(O)c3O)cc12` [Example 143, Cc1c(sc2ccc(CNC(═O)c3cccc(O)c3O)cc12)-c4ccnc(N)n4], for which the figures for the 50% inhibitory concentration (IC50) in assay [1] (setting [3]) and in assay [2] (setting [4]) were over 5 µM and under 5 µM, respectively.

As for `CC(=O)Oc1cccc(Cc2ccc3sc(-c4ccnc(N)n4)c(C)c3c2)c1` [Example 28, 3-((2-(2-Aminopyrimidin-4-yl)-3-methylbenzo[b]thiophen-5-yl)methyl)phenyl acetate], the half-maximal inhibitory concentration (IC50) in assay [1] (setting [3]) and in assay [2] (setting [4]) was under 5 µM each time.

On to `COC(=O)c1cccc(Cc2ccc3sc(-c4ccnc(N)n4)c(C)c3c2)c1` [Example 42, Methyl 3-((2-(2-aminopyrimidin-4-yl)-3-methylbenzo[b]thiophen-5-yl)methyl)benzoate], for which the IC50 was over 5 µM in assay [1] (setting [3]) and under 5 µM in assay [2] (setting [4]).

As for `COC(=O)c1cccc(Sc2ccc3sc(-c4ccnc(N)n4)c(C)c3c2)c1` [Example 85, Methyl 3-(2-(2-aminopyrimidin-4-yl)-3-methylbenzo[b]thiophen-5-ylthio)benzoate], the IC50 in assay [1] (setting [3]) and in assay [2] (setting [4]) was under 5 µM each time.

Regarding `CC(=O)Nc1cccc(NC(=O)c2ccc3sc(-c4ccnc(N)n4)c(C)c3c2)c1` [Example 20, N-(3-Acetamidophenyl)-2-(2-aminopyrimidin-4-yl)-3-methylbenzo[b]thiophene-5-carboxamide], the IC50 in assay [1] (setting [3]) and in assay [2] (setting [4]) was under 5 µM in each case.

Turning to `Cc1ccc([N+](=O)[O-])c(C(=O)NCc2ccc3sc(-c4ccnc(N)n4)c(C)c3c2)c1` [Example 217, Cc1ccc(c(c1)C(═O)NCc2ccc3sc(c(C)c3c2)-c4ccnc(N)n4)[N+]([O−])═O], the IC50 was over 5 µM in assay [1] (setting [3]) and under 5 µM in assay [2] (setting [4]).

As to `Cc1c(-c2ccnc(N)n2)sc2ccc(Cc3cccc(OCCCN)c3)cc12` [Example 31, 4-(5-(3-(3-Aminopropoxy)benzyl)-3-methylbenzo[b]thiophen-2-yl)pyrimidin-2-amine], the IC50 in assay [1] (setting [3]) and in assay [2] (setting [4]) was under 5 µM in each case.

With `Cc1c(-c2ccnc(N)n2)sc2ccc(CNC(=O)c3cc(Cl)c(O)c(Cl)c3)cc12` [Example 275, Cc1c(sc2ccc(CNC(═O)c3cc(Cl)c(O)c(Cl)c3)cc12)-c4ccnc(N)n4], the IC50 in assay [1] (setting [3]) was under 5 µM; in assay [2] (setting [4]), over 5 µM.
